From US10689342B2, “Aza-tanshinone derivatives, process for their preparation and their use in therapy” (UNIVERSITA' DEGLI STUDI DI MILANO, priority 2016, dated 2020) come the findings set out here.

T1 sequence (Q15717 whole entry): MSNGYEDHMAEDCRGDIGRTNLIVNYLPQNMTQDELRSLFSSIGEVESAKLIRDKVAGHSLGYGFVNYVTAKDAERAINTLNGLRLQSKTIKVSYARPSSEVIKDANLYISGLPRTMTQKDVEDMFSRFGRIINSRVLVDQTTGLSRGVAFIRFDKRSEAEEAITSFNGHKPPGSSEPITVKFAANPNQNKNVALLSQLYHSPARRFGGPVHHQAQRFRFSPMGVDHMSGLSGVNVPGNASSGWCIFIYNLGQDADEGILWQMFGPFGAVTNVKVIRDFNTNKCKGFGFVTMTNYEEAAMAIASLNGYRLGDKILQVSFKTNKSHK

One series concerns the target T1, HuR-mRNA interaction (Homo sapiens, UniProt Q15717).
T1 construct: made in house; host or cells: HEK293T cells
In words: AlphaScreen assay, inhibition of HuR-mRNA interaction. The class given is binding. The settings on record: 1-site competition model, RNA 50 nM, Kd 2.5 nM, read-out: Complete Ki. How it is done:
The full encoding sequence for human HuR/ELAVL1 gene (NM001419) has been amplified from cDNA obtained by retro-transcription from RNA of MCF7 cells and inserted into the pCMV6-AC-Myc-His PrecisionShuttle vector (Origene Technologies). The pCMV6-HuR recombinant vector has been transfected into HEK293T cells by using the transfection reagent Lipofectamine® 2000 (Life Technologies) according to the manufacturer protocol. HEK293T cells have been cultured in a complete medium (10% DMEM, 10% FBS, 2 mM Glutamine, 100 units/ml penicillin+100 μg/ml streptomycin) in humidified 5% CO2 atmosphere at 37° C.
Two types of assay have been performed, in order to define the profile of the aza-tanshinones and their inhibitory activity. REMSA (RNA-EMSA, RNA electrophoresis mobility shift assay) in 5% polyacrylamide gel requires the use of a RNA fluorescent probe (5′-Cy3-[…]), while the AlphaScreen assay required a RNA 5′-biotinylated probe (BiTNF, 5′-[…]). […] IC50 values have been obtained by means of non-linear regression of the fit of the log(dose) response by using the same software.
For the compound `Cc1cccc2c3c(ccc12)C1=C(C(=O)C3=O)[C@@H](C)CO1` [DHTS, Dihydrotanshinone, reference compound], the Ki was determined as 0.00374 ± 0.00163 µM.

Still in this series, the particulars now being: rHuR and biotinylated RNA probe.
Compound `O=C1C(=O)c2c(-c3ccccc3)cn(S(=O)(=O)c3ccccc3)c2C2=C1C1CCC2CC1` [Compound 32, 3-Phenyl-1-phenylsulfonyl-4,5-dioxo-6,9-ethanbenzo[g]indole] gave an IC50 of 0.121 ± 0.055 µM.

Consider `Cc1cccc2c3c(ccc12)C1=C(C(=O)C3=O)[C@@H](C)CO1` [DHTS, Dihydrotanshinone, reference compound], for which the IC50 is 0.149 ± 0.034 µM.

On to `O=C1C=Cc2c(c(-c3ccccc3)cn2S(=O)(=O)c2ccc([N+](=O)[O-])cc2)C1=O` [Compound 23, 1-(p-Nitrophenylsulfonyl)-3-phenyl-4,5-dioxo indole], for which it took 0.241 ± 0.042 µM to reach half-maximal inhibition (IC50).

In turn, `COc1cccc(-c2cn(S(=O)(=O)c3ccccc3)c3c2C(=O)C(=O)C=C3)c1` [Compound 29, 1-Phenylsulfonyl-3-(m-methoxyphenyl)-4,5-dioxoindole] showed a half-inhibitory concentration (IC50) of 0.352 ± 0.057 µM.

The test system of the next series is THP-1. In words: alamar Blue viability assay. The class given is cell-based, human. The settings on record: THP1, 10 μM, 24 hours, vs DMSO. How it is done:
(§1) Tumor cell lines of metastatic breast cancer (MDA-MB-231), breast cancer (MCF7), human monocytic leukemia (THP-1) and pancreatic carcinoma (PANC-1) have been cultured in a complete DMEM or RPMI 1640 (Gibco Life Technologies) supplemented with 10% fetal bovine serum (FBS, Lonza), 2 mM L-glutamine and 100 U/ml penicillin-streptomycin (Lonza). The cell lines have been cultured at 37° C. in 5% CO2 and have been regularly tested for Mycoplasma contamination. The viability has been measured by means of alamar Blue assay (Thermo Fisher) under treatment for 24 hours with nanomolar to micromolar doses of aza-tanshinones. The mean viability and the standard deviation (SD) per each test compound have been obtained from the dose-response curves for triple doses (0.01, 0.1, 1. 10. 50 μM) in comparison with the control vehicle (DMSO).
(§2) The group of cell lines used in Paragraph 8.2, with the addition of the tumor cell lines of the metastatic breast cancer SK-BR-3 and of the colon adenocarcinoma SW-480, has been used to measure the IC50/cytotoxicity potency of compound 26. The viability assays have been performed as shown in Paragraph 8.2.
`O=C1C(=O)c2c(-c3ccccc3)cn(S(=O)(=O)c3ccccc3)c2C2=C1C1CCC2CC1` [Compound 32, 3-Phenyl-1-phenylsulfonyl-4,5-dioxo-6,9-ethanbenzo[g]indole] showed a Viability of 0.55.

Still in this series, the particulars now being: THP1, 50 μM, 24 hours, vs DMSO.
As for `O=C1C(=O)c2c(-c3ccccc3)cn(S(=O)(=O)c3ccccc3)c2C2=C1C1CCC2CC1` [Compound 32, 3-Phenyl-1-phenylsulfonyl-4,5-dioxo-6,9-ethanbenzo[g]indole], the Viability was 0.00.

The same series, now with this note: THP-1 cells, 10 μM.
On to `O=C1C(=O)c2c(-c3ccccc3)cn(S(=O)(=O)c3ccccc3)c2C2=C1C1CCC2CC1` [Compound 32, 3-Phenyl-1-phenylsulfonyl-4,5-dioxo-6,9-ethanbenzo[g]indole], for which the cell death entry is listed as “greater than 20%”.

System in another series: not listed separately
In words: alamar Blue viability assay. The series is classed as cell-based, human. The settings on record: human, THP-1 cells (monocytic leukemia); THP1, 10 μM, 24 hours, vs DMSO. How it is done:
as §1, §2
As for `O=C1C=Cc2c(c(-c3ccccc3)cn2S(=O)(=O)c2ccc([N+](=O)[O-])cc2)C1=O` [Compound 23, 1-(p-Nitrophenylsulfonyl)-3-phenyl-4,5-dioxo indole], the viability at 24 h, 10 µM was determined as 98%.

Staying with this series, now noted: human, THP-1 cells (monocytic leukemia); THP1, 50 μM, 24 hours, vs DMSO.
With `O=C1C=Cc2c(c(-c3ccccc3)cn2S(=O)(=O)c2ccc([N+](=O)[O-])cc2)C1=O` [Compound 23, 1-(p-Nitrophenylsulfonyl)-3-phenyl-4,5-dioxo indole], the viability at 24 h, 50 µM stood at 31%.

Another series deals with PANC-1. In words: alamar Blue viability assay. The series is classed as cell-based. Conditions: PANC-1, 10 μM, 24 hours, vs DMSO. As to the method:
as §1, §2
Turning to `O=C1C(=O)c2c(-c3ccccc3)cn(S(=O)(=O)c3ccccc3)c2C2=C1C1CCC2CC1` [Compound 32, 3-Phenyl-1-phenylsulfonyl-4,5-dioxo-6,9-ethanbenzo[g]indole], the Viability turned out to be 0.85.

Still in this series, the particulars now being: PANC-1, 50 μM, 24 hours, vs DMSO.
The compound `O=C1C(=O)c2c(-c3ccccc3)cn(S(=O)(=O)c3ccccc3)c2C2=C1C1CCC2CC1` [Compound 32, 3-Phenyl-1-phenylsulfonyl-4,5-dioxo-6,9-ethanbenzo[g]indole] came in with a Viability of 0.15.

In a further series the test system is MDA-MB-231. In words: alamar Blue viability assay. The class given is cell-based. The settings on record: MDA-MB-231, 10 μM, 24 hours, vs DMSO. As to the method:
as §1, §2
Take `O=C1C(=O)c2c(-c3ccccc3)cn(S(=O)(=O)c3ccccc3)c2C2=C1C1CCC2CC1` [Compound 32, 3-Phenyl-1-phenylsulfonyl-4,5-dioxo-6,9-ethanbenzo[g]indole]: the Viability was 1.00.

The same series, now with this note: MDA-MB-231, 50 μM, 24 hours, vs DMSO.
The compound `O=C1C(=O)c2c(-c3ccccc3)cn(S(=O)(=O)c3ccccc3)c2C2=C1C1CCC2CC1` [Compound 32, 3-Phenyl-1-phenylsulfonyl-4,5-dioxo-6,9-ethanbenzo[g]indole] registered a Viability of 0.28.

System in the next series: not listed separately
In words: alamar Blue viability assay. The series is classed as cell-based. Conditions: human, MCF7 cells (breast cancer); MCF7, 10 μM, 24 hours, vs DMSO. How it is done:
as §1, §2
Turning to `O=C1C=Cc2c(c(-c3ccccc3)cn2S(=O)(=O)c2ccc([N+](=O)[O-])cc2)C1=O` [Compound 23, 1-(p-Nitrophenylsulfonyl)-3-phenyl-4,5-dioxo indole], the viability at 24 h, 10 µM is 100%.

The series is the same for the next values; noted with them: human, MCF7 cells (breast cancer); MCF7, 50 μM, 24 hours, vs DMSO.
In the case of `O=C1C=Cc2c(c(-c3ccccc3)cn2S(=O)(=O)c2ccc([N+](=O)[O-])cc2)C1=O` [Compound 23, 1-(p-Nitrophenylsulfonyl)-3-phenyl-4,5-dioxo indole], the viability at 24 h, 50 µM is 66%.

The same series, now with this note: human, MDA-MB-231 cells (metastatic breast cancer); MDA-MB-231, 10 μM, 24 hours, vs DMSO.
With `O=C1C=Cc2c(c(-c3ccccc3)cn2S(=O)(=O)c2ccc([N+](=O)[O-])cc2)C1=O` [Compound 23, 1-(p-Nitrophenylsulfonyl)-3-phenyl-4,5-dioxo indole], the viability at 24 h, 10 µM was determined as 104%.

Still in this series, the particulars now being: human, MDA-MB-231 cells (metastatic breast cancer); MDA-MB-231, 50 μM, 24 hours, vs DMSO.
`O=C1C=Cc2c(c(-c3ccccc3)cn2S(=O)(=O)c2ccc([N+](=O)[O-])cc2)C1=O` [Compound 23, 1-(p-Nitrophenylsulfonyl)-3-phenyl-4,5-dioxo indole]: the viability at 24 h, 50 µM amounted to 80%.

The same series, now with this note: human, PANC-1 cells (pancreatic carcinoma); PANC-1, 10 μM, 24 hours, vs DMSO.
As to `O=C1C=Cc2c(c(-c3ccccc3)cn2S(=O)(=O)c2ccc([N+](=O)[O-])cc2)C1=O` [Compound 23, 1-(p-Nitrophenylsulfonyl)-3-phenyl-4,5-dioxo indole], the viability at 24 h, 10 µM was found to be 92%.

Still in this series, the particulars now being: human, PANC-1 cells (pancreatic carcinoma); PANC-1, 50 μM, 24 hours, vs DMSO.
As to `O=C1C=Cc2c(c(-c3ccccc3)cn2S(=O)(=O)c2ccc([N+](=O)[O-])cc2)C1=O` [Compound 23, 1-(p-Nitrophenylsulfonyl)-3-phenyl-4,5-dioxo indole], the viability at 24 h, 50 µM is 36%.

A further series has as its system MCF7. In words: alamar Blue viability assay. The series is classed as cell-based. The settings on record: MCF7, 10 μM, 24 hours, vs DMSO. As to the method:
as §1, §2
`O=C1C(=O)c2c(-c3ccccc3)cn(S(=O)(=O)c3ccccc3)c2C2=C1C1CCC2CC1` [Compound 32, 3-Phenyl-1-phenylsulfonyl-4,5-dioxo-6,9-ethanbenzo[g]indole] gave a Viability of 1.09.

The same series, now with this note: MCF7, 50 μM, 24 hours, vs DMSO.
The compound `O=C1C(=O)c2c(-c3ccccc3)cn(S(=O)(=O)c3ccccc3)c2C2=C1C1CCC2CC1` [Compound 32, 3-Phenyl-1-phenylsulfonyl-4,5-dioxo-6,9-ethanbenzo[g]indole] had a Viability of 0.14.
